Test results taken from patent publication US20250197359A1, “CANNABINOID RECEPTOR MODULATING COMPOUNDS” (The U.S.A., as Represented by the Secretary, Department of …, priority 2022, published 2025).
Read-outs that look alike come from different tables or passages of the source.

How the values were obtained:
Brain/CB1 = biological target: T1, Brain/CB1 (Mus musculus, UniProt P47746); assay: Functional GTPγS binding, Brain/CB1; type: biochemical
T1 construct: from tissue; host or cells: mouse brain membranes

CB1 = CB1 (UniProt P21554); assay: CB1 radioligand binding assay; set-up: species or system human; conditions: read-out: Ki (CB1)
Method in brief: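 Radioligand binding to human CB1 stably expressed in CHO cells and to mouse brain membrane CB1 gave binding constants. For selected compounds, antagonism of CP55940-induced CB1 activation was measured in MPXNomad-CB1 HEK293 cells via cAMPNomad (cAMP) and ArresNomad (β-arrestin) fluorescent biosensors.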

[1] = Caco-2 permeability (A-B and B-A); type: in vitro ADME; conditions: human; for efflux ratio: Caco-2, quotient of Papp(BA) to Papp(AB)
[2] = Metabolic stability in human liver microsomes; type: in vitro ADME
[3] = Metabolic stability in mouse liver microsomes; type: in vitro ADME
iNOS = iNOS (Mus musculus, UniProt P29477); assay: Inducible NOS biochemical assay; conditions: for % Response (Inducible NOS): Mouse, 10 μM, criteria ≥ ±50%, preliminary data
Source text: Biochemical assay results are presented as the percent inhibition of specific binding or activity (iNOS, CAMP, beta arrestin).

[4] = Caco-2, mean, read-out: Papp (AB), 10^−6 cm/s, Mean
[5] = Caco-2, mean, read-out: Papp (BA), 10^−6 cm/s, Mean
[6] = Caco-2, replicate 1, read-out: Papp (AB), 10^−6 cm/s, 1
[7] = Caco-2, replicate 1, read-out: Papp (BA), 10^−6 cm/s, 1
[8] = Caco-2, replicate 2, read-out: Papp (AB), 10^−6 cm/s, 2
[9] = Caco-2, replicate 2, read-out: Papp (BA), 10^−6 cm/s, 2

T1 sequence (P47746 whole entry): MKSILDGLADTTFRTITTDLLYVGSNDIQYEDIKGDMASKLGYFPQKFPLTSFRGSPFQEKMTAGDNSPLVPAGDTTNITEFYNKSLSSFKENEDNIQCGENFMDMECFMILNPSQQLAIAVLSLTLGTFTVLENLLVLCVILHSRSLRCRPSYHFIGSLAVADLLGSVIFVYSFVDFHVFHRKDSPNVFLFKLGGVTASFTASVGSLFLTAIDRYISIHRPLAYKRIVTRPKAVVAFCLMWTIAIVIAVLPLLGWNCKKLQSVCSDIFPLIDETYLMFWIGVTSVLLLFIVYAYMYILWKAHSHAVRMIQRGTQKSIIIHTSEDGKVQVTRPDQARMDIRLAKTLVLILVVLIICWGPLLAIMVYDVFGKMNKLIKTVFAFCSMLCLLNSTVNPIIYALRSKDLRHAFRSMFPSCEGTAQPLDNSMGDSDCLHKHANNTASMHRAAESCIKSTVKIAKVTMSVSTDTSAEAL

Row | Structure (SMILES) | IC50 (Brain/CB1) | Ki (CB1) | iNOS inhibition % Response (iNOS) | also measured
1 | CC(C)C(N/C(=N/S(=O)(=O)c1ccc(C(F)(F)F)cc1)N1CCC(c2ccccc2)C(c2ccc(Cl)cc2)=N1)C(N)=O (single isomer, unassigned) [Compound 29b, (Z)-2-(3-(4-chlorophenyl)-4-phenyl-N′-((4-(trifluoromethyl)phenyl)sulfonyl)-1,4,5,6-tetrahydropyridazine-1-carboximidamido)-3-methylbutanamide] | 0.01 µM | 0.0027 µM |  | Papp A→B [1, 4]: 0.9 ×10⁻⁶ cm/s; Papp B→A [1, 5]: 0.3 ×10⁻⁶ cm/s; Papp A→B [1, 6]: 0.9 ×10⁻⁶ cm/s; Papp B→A [1, 7]: 0.3 ×10⁻⁶ cm/s; Papp A→B [1, 8]: 1 ×10⁻⁶ cm/s; Papp B→A [1, 9]: 0.4 ×10⁻⁶ cm/s; efflux ratio [1]: 0.4; Clint [2]: 15 µL/min/mg; t1/2, min [2]: 1.91 h; Clint [3]: 883 µL/min/mg; t1/2, min [3]: 0.0317 h
2 | C/C(N)=N\C(=N\S(=O)(=O)c1ccc(Cl)cc1)N1CCC(c2ccccc2)C(c2ccc(Cl)cc2)=N1 (centres unmarked) [Compound 10a, (Z)—N—((E)-1-aminoethylidene)-3-(4-chlorophenyl)-N′-((4-chlorophenyl)sulfonyl)-4-phenyl-5,6-dihydropyridazine-1 (4H)-carboximidamide] | 0.138 µM | 0.076 µM | 39% | 
3 | C/C(N)=N\C(=N\S(=O)(=O)c1ccc(OC(F)(F)F)cc1)N1CCC(c2ccccc2)C(c2ccc(Cl)cc2)=N1 (centres unmarked) [Compound 10d, (Z)—N—((E)-1-aminoethylidene)-3-(4-chlorophenyl)-4-phenyl-N′-((4-(trifluoromethoxy)phenyl)sulfonyl)-5,6-dihydropyridazine-1 (4H)-carboximidamide] | 0.104 µM | 0.0565 µM | 55% | 
4 | C/C(N)=N\C(=N\S(=O)(=O)c1ccc(C#N)cc1)N1CCC(c2ccccc2)C(c2ccc(Cl)cc2)=N1 (centres unmarked) [Compound 10e, (Z)—N—((E)-1-aminoethylidene)-3-(4-chlorophenyl)-N′-((4-cyanophenyl)sulfonyl)-4-phenyl-5,6-dihydropyridazine-1 (4H)-carboximidamide] | 0.338 µM | 0.077 µM | 43% | 
5 | CC(C)/C(N)=N\C(=N\S(=O)(=O)c1ccc(C(F)(F)F)cc1)N1CCC(c2ccccc2)C(c2ccc(Cl)cc2)=N1 (centres unmarked) [Compound 10m, (Z)—N—((E)-1-amino-2-methylpropylidene)-3-(4-chlorophenyl)-4-phenyl-N′-((4-(trifluoromethyl)phenyl)sulfonyl)-5,6-dihydropyridazine-1 (4H)-carboximidamide] | 0.151 µM | 0.023 µM | 55% | 
6 | N/C(=N\C(=N\S(=O)(=O)c1ccc(C(F)(F)F)cc1)N1CCC(c2ccccc2)C(c2ccc(Cl)cc2)=N1)C1CC1 (centres unmarked) [Compound 10n, (Z)—N—((Z)-amino (cyclopropyl)methylene)-3-(4-chlorophenyl)-4-phenyl-N′-((4-(trifluoromethyl)phenyl)sulfonyl)-5,6-dihydropyridazine-1 (4H)-carboximidamide] | 0.211 µM | 0.044 µM | 55% | 
7 | CC(C)(C)/C(N)=N/C(=N/S(=O)(=O)c1ccc(C(F)(F)F)cc1)N1CCC(c2ccccc2)C(c2ccc(Cl)cc2)=N1 (centres unmarked) [Compound 10o, (Z)—N—((Z)-1-amino-2,2-dimethylpropylidene)-3-(4-chlorophenyl)-4-phenyl-N′-((4-(trifluoromethyl)phenyl)sulfonyl)-5,6-dihydropyridazine-1 (4H)-carboximidamide] | 0.018 µM | 0.01 µM | 66% | Papp A→B [1, 4]: 2.2 ×10⁻⁶ cm/s; Papp B→A [1, 5]: 0.5 ×10⁻⁶ cm/s; Papp A→B [1, 6]: 1.9 ×10⁻⁶ cm/s; Papp B→A [1, 7]: 0.5 ×10⁻⁶ cm/s; Papp A→B [1, 8]: 2.4 ×10⁻⁶ cm/s; Papp B→A [1, 9]: 0.5 ×10⁻⁶ cm/s; efflux ratio [1]: 0.2; t1/2, min [2]: 1.07 h; microsomal CLint ([2]; human, liver microsomes): 26 µL/min/mg; half-life ([2]; human, liver microsomes, read-out: t1/2, min): 1.07 h; t1/2, min [3]: 1.23 h; microsomal CLint ([3]; mouse, liver microsomes): 23 µL/min/mg; half-life ([3]; mouse, liver microsomes, read-out: t1/2, min): 1.13 h
8 | N/C(=N/C(=N/S(=O)(=O)c1ccc(C(F)(F)F)cc1)N1CCC(c2ccccc2)C(c2ccc(Cl)cc2)=N1)c1ccccc1Cl (centres unmarked) [Compound 10s, (Z)—N—((E)-amino (2-chlorophenyl)methylene)-3-(4-chlorophenyl)-4-phenyl-N′-((4-(trifluoromethyl)phenyl)sulfonyl)-5,6-dihydropyridazine-1 (4H)-carboximidamide] | 0.019 µM | 0.0205 µM | 24% | 
9 | CS/C(N)=N\C(=N\S(=O)(=O)c1ccc(C(F)(F)F)cc1)N1CCC(c2ccccc2)C(c2ccc(Cl)cc2)=N1 (centres unmarked) [Compound 11b, methyl (Z)—N′—((Z)-(3-(4-chlorophenyl)-4-phenyl-5,6-dihydropyridazin-1 (4H)-yl)(((4-(trifluoromethyl)phenyl)sulfonyl)imino)methyl)carbamimidothioate] | 0.125 µM | 0.0867 µM | 56% | 
10 | CCS/C(N)=N\C(=N/S(=O)(=O)c1ccc(C(F)(F)F)cc1)N1CCC(c2ccccc2)C(c2ccc(Cl)cc2)=N1 (centres unmarked) [Compound 11i, ethyl (Z)—N′—((E)-(3-(4-chlorophenyl)-4-phenyl-5,6-dihydropyridazin-1 (4H)-yl)(((4-(trifluoromethyl)phenyl)sulfonyl)imino)methyl)carbamimidothioate] | 0.64 µM | 0.0997 µM | 66% | 
11 | C[Se]/C(N)=N\C(=N\S(=O)(=O)c1ccc(C(F)(F)F)cc1)N1CCC(c2ccccc2)C(c2ccc(Cl)cc2)=N1 (centres unmarked) [Compound 12b, methyl (Z)—N′—((Z)-(3-(4-chlorophenyl)-4-phenyl-5,6-dihydropyridazin-1 (4H)-yl)(((4-(trifluoromethyl)phenyl)sulfonyl)imino)methyl)carbamimidoselenoate] |  | 0.114 µM | 64% | 
12 | O=S(=O)(/N=C(/N=C1\CCCCN1)N1CCC(c2ccccc2)C(c2ccc(Cl)cc2)=N1)c1ccc2ccccc2c1 (centres unmarked) [Compound 15, (Z)-3-(4-chlorophenyl)-N′-(naphthalen-2-ylsulfonyl)-4-phenyl-N—((E)-piperidin-2-ylidene)-5,6-dihydropyridazine-1 (4H)-carboximidamide] | 0.287 µM | 0.0341 µM |  | 
13 | O=S(=O)(/N=C(/N=C1\CCCCN1)N1CCC(c2ccccc2)C(c2ccc(Cl)cc2)=N1)c1ccc(C(F)(F)F)cc1 (centres unmarked) [Compound 16, (Z)-3-(4-chlorophenyl)-4-phenyl-N—((E)-piperidin-2-ylidene)-N′-((4-(trifluoromethyl)phenyl)sulfonyl)-5,6-dihydropyridazine-1 (4H)-carboximidamide] | 0.104 µM | 0.026 µM | 51% | 
14 | COC(=O)CN/C(=N/S(=O)(=O)c1ccc(C(F)(F)F)cc1)N1CCC(c2ccccc2)C(c2ccc(Cl)cc2)=N1 (centres unmarked) [Compound 23, methyl (Z)-((3-(4-chlorophenyl)-4-phenyl-5,6-dihydropyridazin-1 (4H)-yl)(((4-(trifluoromethyl)phenyl)sulfonyl)imino)methyl)glycinate] | 0.0081 µM | 0.00437 µM |  | 
15 | NC(=O)CN/C(=N/S(=O)(=O)c1ccc(C(F)(F)F)cc1)N1CCC(c2ccccc2)C(c2ccc(Cl)cc2)=N1 (centres unmarked) [Compound 24, (Z)-2-(3-(4-chlorophenyl)-4-phenyl-N′-((4-(trifluoromethyl)phenyl)sulfonyl)-1,4,5,6-tetrahydropyridazine-1-carboximidamido)acetamide] | 0.033 µM | 0.01 µM |  | 
16 | NC(=O)CN/C(=N/S(=O)(=O)c1ccc(Cl)cc1)N1CCC(c2ccccc2)C(c2ccc(Cl)cc2)=N1 (centres unmarked) [Compound 25, (Z)-2-(3-(4-chlorophenyl)-N′-((4-chlorophenyl)sulfonyl)-4-phenyl-1,4,5,6-tetrahydropyridazine-1-carboximidamido)acetamide] | 0.207 µM | 0.0411 µM |  | 
17 | C/C(N)=N\C(=N\S(=O)(=O)c1ccc(C)cc1)N1CCC(c2ccccc2)C(c2ccc(Cl)cc2)=N1 (centres unmarked) [Compound 101, (Z)—N—((E)-1-aminoethylidene)-3-(4-chlorophenyl)-4-phenyl-N′-tosyl-5,6-dihydropyridazine-1 (4H)-carboximidamide] | > 1 µM | 0.084 µM |  | 
18 | C/C(N)=N\C(=N\S(=O)(=O)c1ccc(C(F)(F)F)cc1)N1CCC(c2ccccc2)C(c2ccc(Cl)cc2)=N1 (centres unmarked) [drawing 16] |  |  |  | % Response (Inducible NOS) (iNOS): 64%
19 | CS/C(N)=N\C(=N\S(=O)(=O)c1ccc(C(F)(F)F)cc1)N1CCC(c2ccccc2)C(c2ccc(Cl)cc2)=N1 (centres unmarked) [drawing 17] |  |  |  | % Response (Inducible NOS) (iNOS): 56%
20 | C[Se]/C(N)=N\C(=N\S(=O)(=O)c1ccc(C(F)(F)F)cc1)N1CCC(c2ccccc2)C(c2ccc(Cl)cc2)=N1 (centres unmarked) [drawing 18] |  |  |  | % Response (Inducible NOS) (iNOS): 64%
